From patent US8110654B2, “T cell epitope peptides of ovarian cancer anti-idiotypic antibody 6B11 and use thereof” (Peking University People;s Hospital, priority 2006, dated 2012)

Tests used:
[1] = tested on: anti-idiotype antibody 6B11-CTLs (reacting cells); assay: BrdU ELISA cell proliferation assay, 6B11-CTLs stimulated by loaded DCs; format: cell-based, human; conditions: for proliferation after blocking by MHC class II antibodies: anti-human MHC class II antibodies 1:20 dilution; for proliferation of reacting cells 6B11-CTLs: stimulating DCs loaded with peptide 30 μg/ml or 6B11 40 μg/ml, 120 hours, BrdU, A450
Experimental: Peripheral blood was drawn from HLA-A2 healthy human subjects. After EDTA anti-coagulation treatment, peripheral blood monocytes were isolated using Ficoll lymphocyte isolation 1×10^7 monocytes/well and AIM-V culture medium (containing 5% human AB serum) was added to 1 ml. The cells were incubated at 37° C. under 5% CO2 for 2 hours. Non-adherent cells were drawn and removed as lymphocytes and stored in liquid nitrogen for further use. The adherent cells were monocytes.
The monocytes isolated from said 6-well plates were added with 2 ml AIM-V culture medium (containing 5% human AB serum)/well. Recombinant human granulocyte-macrophage colony-stimulating factor (rh GM-CSF) and recombinant human interleukin-4 (rh IL-4) were added simultaneously both to a final concentration of 1000 U/ml, for induced incubation. On Day 4, 1 ml AIM-V culture medium (containing 5% human AB serum) was supplemented, and rh GM-CSF and rh IL-4 of the same concentration as mentioned above were also supplemented. On Day 6, 1 ml AIM-V culture medium (containing 5% human AB serum) was supplemented again. At the same time, recombinant human tumor necrosis factor-α (rh TNF-α), recombinant human α-interferon (rh IFN-α) and recombinant human interleukin-6 (rh IL-6) were added, all to a final concentration of 1000 U/ml, and prostaglandin E2 (PGE2) was added to a final concentration of 1 μg/ml. Co-incubation lasted 24 hours for inducing mature DCs.
On Day 4 during incubation of DCs, the culture medium, rh GM-CSF and rh IL-4 were supplemented. At the same time, anti-idiotype antibody 6B11 was added to a final concentration of 40 μg/ml for loading. The loaded cells were stored as stimulating cells for further use.
Mature DCs induced were harvested, washed and adjusted to a concentration of 1×10^6 cells/ml. Six CDR peptides (SEQ ID NOs: 1-6, see Table 1, artificially synthesized) in a final concentration of 30 μg/ml respectively, or each peptide of 30 μg/ml together with keyhole limpet hemocyanin (KLH) of 5 μg/ml were added for loading. The loaded cells were stored as stimulating cells for further use.
The freeze-stored autologous lymphocytes were stimulated by DCs loaded with anti-idiotype antibody 6B11 (anti-Id DCs), to obtain CTLs specific to anti-idiotype antibody 6B11 (6B11-CTLs). One period consists of 7 days. On Day 3 of every period, 10 U/ml recombinant human interleukin-2 (rh IL-2) was supplemented. Finally, anti-idiotype antibody 6B11-CTLs were obtained after a one- or three-period stimulation.
All the CDR peptides of anti-idiotype antibody 6B11 (6 peptides) were synthesized artificially. The peptides were screened for Th epitope peptides by cell proliferation assay. Anti-idiotype antibody 6B11-CTLs stimulated for one period were used as reacting cells. DCs loaded with anti-idiotype antibodies and peptides respectively were used as stimulating cells. The reacting cells and the stimulating cells (in the ratio of 10:1) were co-incubated at 37° C. under 5% CO2 for 120 hours and then subject to BrdU ELISA cell proliferation assay. Each well contained 100 μl AIM-V culture medium and 1×10^5 anti-idiotype antibody 6B11-CTLs. Within the last 2 hours during stimulation, 10 μl BrdU labeling solution was added into each well and the fluid in the wells was removed. The cells were dried at 60° C. for 1 hour. 200 μl of FixDenat solution was added into each well. The reaction continued for 30 minutes at 37° C. for fixing DNA in the lymphocytes. Finally, 100 μl BrdU monoclonal antibody was added into each well for 90 minutes. The absorption value at 450 nm was read by an automatic microplate reader after substrate chromogenic reaction for detecting the proliferation of the cells. The group of DCs without loading and the group of phytohaemagglutinin (PHA) were used as negative and positive control respectively. […] Other peptides could not stimulate the proliferation of the reacting cells. […]

CD4 T cells = assay: BrdU cell proliferation assay after magnetic bead sorting of CD4 T cells; format: cell-based, human; conditions: reacting cells sorted for CD4 T cells by magnetic beads
Experimental: All the CDR peptides of anti-idiotype antibody 6B11 (6 peptides) were synthesized artificially. The peptides were screened for Th epitope peptides by cell proliferation assay. Anti-idiotype antibody 6B11-CTLs stimulated for one period were used as reacting cells. DCs loaded with anti-idiotype antibodies and peptides respectively were used as stimulating cells. The reacting cells and the stimulating cells (in the ratio of 10:1) were co-incubated at 37° C. under 5% CO2 for 120 hours and then subject to BrdU ELISA cell proliferation assay. Each well contained 100 μl AIM-V culture medium and 1×10^5 anti-idiotype antibody 6B11-CTLs. Within the last 2 hours during stimulation, 10 μl BrdU labeling solution was added into each well and the fluid in the wells was removed. The cells were dried at 60° C. for 1 hour. 200 μl of FixDenat solution was added into each well. The reaction continued for 30 minutes at 37° C. for fixing DNA in the lymphocytes. Finally, 100 μl BrdU monoclonal antibody was added into each well for 90 minutes. The absorption value at 450 nm was read by an automatic microplate reader after substrate chromogenic reaction for detecting the proliferation of the cells. The group of DCs without loading and the group of phytohaemagglutinin (PHA) were used as negative and positive control respectively. […] Other peptides could not stimulate the proliferation of the reacting cells.
For further analyzing the proliferation of the cells, stimulating cells were blocked by anti-human MHC class II antibodies, for evaluating the effect of Th epitope peptides. Firstly, the optimal application concentration of MHC class II antibodies was determined by experiments to be 1:20 dilution (FIG. 3). […] Other peptides could not trigger cell proliferation, no matter whether MHC class II antibodies were applied or not (FIG. 4). […] The reacting cells were subject to magnetic bead sorting of CD4 T cells.

HOC1A cells = assay: Cytokine ELISA of supernatant of CTLs co-incubated with HOC1A cells; format: cell-based; conditions: CTL:HOC1A 40:1, 48 hours, double-antibody-sandwich ELISA
Experimental: 6B11-CTLs, VH CDR3-CTLs and VL CDR3-CTLs were mixed with target HOC1A cells in the ratio of 40:1 respectively and co-incubated at 37° C. under 5% CO2 for 48 hours. The supernatant was harvested, and the contents of IL-2, IFN-γ and IL-4 determined by double-antibody-sandwich ELISA. […] VH CDR3 peptide- and VL CDR3 peptide-specific CTLs could also secrete high levels of IL-2 and IFN-γ while the secretion of IL-4 was in a low level, which was in a similar trend as that of the immune response induced by anti-idiotype antibody 6B11. This indicated from a different perspective that VH CDR3 peptide and VL CDR3 peptide were involved in the induction of T cell immune response derived from anti-idiotype antibody 6B11 (FIG. 13).

Sequence | proliferation after blocking by MHC class II antibodies [1] | proliferation of reacting cells 6B11-CTLs [1] | proliferation of sorted CD4 T cells (CD4 T cells) | IFN-γ secretion by CTLs (HOC1A cells) | IL-2 secretion by CTLs (HOC1A cells) | IL-4 secretion by CTLs (HOC1A cells)
IALITTKIAWYFDV (VH CDR3 region peptide) [VH CDR3 peptide] | could be blocked mostly | could stimulate the proliferation | could trigger the proliferation | high levels | high levels | low level
SQSTHFPYT (VL CDR3 region peptide) | could not be blocked | could stimulate the proliferation | could not trigger the proliferation | high levels | high levels | low level
